# Reference: patent US11446287B2, “Compounds and methods for EP300 or CBP modulation and indications therefor” (Opna Immuno-Oncology SA, priority 2019, dated 2022)
# Biological target: T1, Recombinant human BRD4 containing dual bromodomains (BRD4-BD12 (1-477)) (Homo sapiens, UniProt O60885)
# T1 construct: Recombinant human BRD4 containing dual bromodomains (BRD4-BD12 (1-477)); made in house; host or cells: E. coli BL21-CodonPlus (DE3), modified pET vector
# Test: BRD4 Alphascreen binding assay
# Summary of the method: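 AlphaScreen proximity between Ni-chelate-bound BRD4-BD12 (1-477) and streptavidin-captured H4 K5/K8/K12/K16-acetyl peptide measured after 1 h room-temperature compound incubation and 30 min with 7.5 μg/ml beads. Buffer: 50 mM HEPES pH 7.5, 50 mM NaCl, 0.01% BSA, 0.01% Triton X-100; data plate-normalized and four-parameter fit for IC50.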
row,SMILES,IC50 [µM]
1,"CCOC(=O)c1cc(-c2cn(-c3ccc(F)cc3F)c3ncc(-c4c(C)noc4C)cc23)c(OCC)cc1O [P-0248, ethyl 5-(1-(2,4-difluorophenyl)-5-(3,5-dimethylisoxazol-4-yl)-1H-pyrrolo[2,3-b]pyridin-3-yl)-4-ethoxy-2-hydroxybenzoate]",8 to 1000
2,"CCOc1cc(O)c(C(=O)O)cc1-c1cn(-c2ccc(F)cc2F)c2ncc(-c3c(C)noc3C)cc12 [P-0249, 5-(1-(2,4-difluorophenyl)-5-(3,5-dimethylisoxazol-4-yl)-1H-pyrrolo[2,3-b]pyridin-3-yl)-4-ethoxy-2-hydroxybenzoic acid]",8 to 1000
3,"CCOc1cc(OC)c(C(=O)O)cc1-c1cn(-c2ccc(F)cc2F)c2ncc(-c3c(C)noc3C)cc12 [P-0250, 5-(1-(2,4-difluorophenyl)-5-(3,5-dimethylisoxazol-4-yl)-1H-pyrrolo[2,3-b]pyridin-3-yl)-4-ethoxy-2-methoxybenzoic acid]",8 to 1000
4,"Cc1noc(C)c1-c1cnc2c(c1)c(-c1ccc(C(=O)O)cc1OC(F)(F)F)cn2-c1cnccc1F [P-0251, 4-(5-(3,5-dimethylisoxazol-4-yl)-1-(4-fluoropyridin-3-yl)-1H-pyrrolo[2,3-b]pyridin-3-yl)-3-(trifluoromethoxy)benzoic acid]",8 to 1000
5,"Cc1noc(C)c1-c1cnc2c(c1)c(-c1ccc(C(=O)O)cc1OC(F)(F)F)cn2-c1cnccc1O [P-0252, 4-(5-(3,5-dimethylisoxazol-4-yl)-1-(4-hydroxypyridin-3-yl)-1H-pyrrolo[2,3-b]pyridin-3-yl)-3-(trifluoromethoxy)benzoic acid]",8 to 1000
6,"Cc1noc(C)c1-c1cnc2c(c1)c(-c1ccc(C(=O)O)cc1OC(F)(F)F)cn2-c1ccncc1Cl [P-0253, 4-(1-(3-chloropyridin-4-yl)-5-(3,5-dimethylisoxazol-4-yl)-1H-pyrrolo[2,3-b]pyridin-3-yl)-3-(trifluoromethoxy)benzoic acid]",8 to 1000
7,"Cc1noc(C)c1-c1cnc2c(c1)c(-c1ccc(C(=O)O)cc1OC(F)(F)F)cn2-c1c(F)cccc1C#N [P-0254, 4-(1-(2-cyano-6-fluorophenyl)-5-(3,5-dimethylisoxazol-4-yl)-1H-pyrrolo[2,3-b]pyridin-3-yl)-3-(trifluoromethoxy)benzoic acid]",1 to 8
8,"COc1cc(C(=O)O)cc(C)c1-c1cn(-c2ccccc2)c2ncc(-c3c(C)noc3C)cc12 [P-0255, 4-(5-(3,5-dimethylisoxazol-4-yl)-1-phenyl-1H-pyrrolo[2,3-b]pyridin-3-yl)-3-methoxy-5-methylbenzoic acid]",1 to 8
9,"Cc1noc(C)c1-c1cnc2c(-c3ccc(C(=O)O)cc3C#N)c(C(F)(F)F)n([C@@H](C)c3ccccn3)c2c1 [P-0256, (S)-3-cyano-4-(6-(3,5-dimethylisoxazol-4-yl)-1-(1-(pyridin-2-yl)ethyl)-2-(trifluoromethyl)-1H-pyrrolo[3,2-b]pyridin-3-yl)benzoic acid]",8 to 1000
10,"Cc1noc(C)c1-c1cnc2c(-c3cc(C(=O)O)ccc3Cl)c(C(F)(F)F)n([C@@H](C)c3ccccn3)c2c1 [P-0257, (S)-4-chloro-3-(6-(3,5-dimethylisoxazol-4-yl)-1-(1-(pyridin-2-yl)ethyl)-2-(trifluoromethyl)-1H-pyrrolo[3,2-b]pyridin-3-yl)benzoic acid]",8 to 1000
11,"CCOc1cc(C(=O)O)cc(OCC)c1-n1cc(-c2cnn(CS(C)(=O)=O)c2)c2ncc(-c3c(C)noc3C)cc21 [P-0258, 4-(6-(3,5-dimethylisoxazol-4-yl)-3-(1-((methylsulfonyl)methyl)-1H-pyrazol-4-yl)-1H-pyrrolo[3,2-b]pyridin-1-yl)-3,5-diethoxybenzoic acid]",1 to 8
12,"CCOc1cc(C(=O)O)cc(OCC)c1-n1cc(-c2cn(C(C)C)nc2C)c2ncc(-c3c(C)noc3C)cc21 [P-0259, 4-(6-(3,5-dimethylisoxazol-4-yl)-3-(1-isopropyl-3-methyl-1H-pyrazol-4-yl)-1H-pyrrolo[3,2-b]pyridin-1-yl)-3,5-diethoxybenzoic acid]",1 to 8
13,"CCOc1cc(C(=O)O)cc(OCC)c1-n1cc(-c2cnn(CC(C)(C)O)c2)c2ncc(-c3c(C)noc3C)cc21 [P-0260, 4-(6-(3,5-dimethylisoxazol-4-yl)-3-(1-(2-hydroxy-2-methylpropyl)-1H-pyrazol-4-yl)-1H-pyrrolo[3,2-b]pyridin-1-yl)-3,5-diethoxybenzoic acid]",1 to 8
14,"CCOc1cc(C(=O)O)cc(OCC)c1-n1cc(-c2cnn(C(F)F)c2)c2ncc(-c3c(C)noc3C)cc21 [P-0261, 4-(3-(1-(difluoromethyl)-1H-pyrazol-4-yl)-6-(3,5-dimethylisoxazol-4-yl)-1H-pyrrolo[3,2-b]pyridin-1-yl)-3,5-diethoxybenzoic acid]",1 to 8
15,"CCOc1cc(C(=O)O)cc(OCC)c1-n1cc(-c2cnn(CCN(C)C)c2)c2ncc(-c3c(C)noc3C)cc21 [P-0262, 4-(3-(1-(2-(dimethylamino)ethyl)-1H-pyrazol-4-yl)-6-(3,5-dimethylisoxazol-4-yl)-1H-pyrrolo[3,2-b]pyridin-1-yl)-3,5-diethoxybenzoic acid]",1 to 8
16,"CCOc1cc(C(=O)O)cc(OCC)c1-n1cc(-c2cn(C)nc2C)c2ncc(-c3c(C)noc3C)cc21 [P-0263, 4-(3-(1,3-dimethyl-1H-pyrazol-4-yl)-6-(3,5-dimethylisoxazol-4-yl)-1H-pyrrolo[3,2-b]pyridin-1-yl)-3,5-diethoxybenzoic acid]",1 to 8
17,"CCOc1cc(C(=O)O)cc(OCC)c1-n1cc(-c2cnn(CC3CC3)c2)c2ncc(-c3c(C)noc3C)cc21 [P-0264, 4-(3-(1-(cyclopropylmethyl)-1H-pyrazol-4-yl)-6-(3,5-dimethylisoxazol-4-yl)-1H-pyrrolo[3,2-b]pyridin-1-yl)-3,5-diethoxybenzoic acid]",1 to 8
18,"CCOc1cc(C(=O)O)cc(OCC)c1-n1cc(-c2cnn(C3CC3)c2)c2ncc(-c3c(C)noc3C)cc21 [P-0265, 4-(3-(1-cyclopropyl-1H-pyrazol-4-yl)-6-(3,5-dimethylisoxazol-4-yl)-1H-pyrrolo[3,2-b]pyridin-1-yl)-3,5-diethoxybenzoic acid]",1 to 8
19,"CCOc1cc(C(=O)O)cc(OCC)c1-n1cc(-c2cnn(CCC#N)c2)c2ncc(-c3c(C)noc3C)cc21 [P-0266, 4-(3-(1-(2-cyanoethyl)-1H-pyrazol-4-yl)-6-(3,5-dimethylisoxazol-4-yl)-1H-pyrrolo[3,2-b]pyridin-1-yl)-3,5-diethoxybenzoic acid]",1 to 8
20,"CCOc1cc(C(=O)O)cc(OCC)c1-n1cc(-c2cnn(CC(=O)N(C)C)c2)c2ncc(-c3c(C)noc3C)cc21 [P-0267, 4-(3-(1-(2-(dimethylamino)-2-oxoethyl)-1H-pyrazol-4-yl)-6-(3,5-dimethylisoxazol-4-yl)-1H-pyrrolo[3,2-b]pyridin-1-yl)-3,5-diethoxybenzoic acid]",1 to 8
21,"Cc1noc(C)c1-c1cnc2c(c1)c(-c1cc(C(=O)O)ccc1OC(F)(F)F)cn2-c1ccc(F)cc1F [P-0268, 3-(1-(2,4-difluorophenyl)-5-(3,5-dimethylisoxazol-4-yl)-1H-pyrrolo[2,3-b]pyridin-3-yl)-4-(trifluoromethoxy)benzoic acid]",1 to 8
22,"Cc1noc(C)c1-c1cnc2c(-c3ccc(F)cc3F)cn(-c3c(OC(C)C)cc(C(=O)O)cc3OC(C)C)c2c1 [P-0269, 4-(3-(2,4-difluorophenyl)-6-(3,5-dimethylisoxazol-4-yl)-1H-pyrrolo[3,2-b]pyridin-1-yl)-3,5-diisopropoxybenzoic acid]",1 to 8
